From patent publication US11912693B2, “Compounds for modulating S1P1 activity and methods of using the same” (TREVENA, INC., priority 2017, dated 2024)

How the values were obtained:
[1] = system: peripheral blood lymphocytes; assay: Peripheral blood lymphocytes (lymphopenia) in c57bl/6 mice, acute and chronic studies; format: in vivo; settings: for Lymphopenia: Effect and Doses, mg/kg, sc: peripheral blood lymphocytes vs vehicle; for Lymphopenia: Effect and Doses, mg/kg, sc (change in peripheral blood lymphocytes): significance vs vehicle given
Procedure: Compounds were tested for changes in peripheral blood lymphocytes in c57bl/6 mice. In acute studies, animals (n=5/group) were dosed subcutaneously with test compound at a dose of 3 mg/kg. Animals were sacrificed at specific time points and 500 μl of whole blood was collected in EDTA (K2) Eppendorf tubes. Blood was stored on ice and shipped immediately overnight delivery to Charles River Laboratories for analysis. CRL ran samples through their WBC/differential panel on an Advia 120 instrument. We received peripheral lymphocyte counts (10^3 cells/μl) for each blood sample. Treatment group means were compared to a vehicle treatment group for statistical significance. In chronic studies, animals (n=6-8/group) were dosed subcutaneously with test compound either in a dose response paradigm (highest dose of 3 mg/kg) or in a screening paradigm at 6 mg/kg for seven days. On the seventh day, animals were sacrificed 45 minutes after the final dose. Whole blood was collected and analyzed as described for acute studies. […]

[2] = target: T1, human sphingosine-1-phosphate receptor 1 (S1P1) (Homo sapiens (Human), UniProt P21453); assay: Inhibition of cAMP production (HTRF cAMP HiRange), S1P1 CHO-K1 cells; format: cell-based; settings: for Emax: CHO-K1, efficacy (SPAN) normalized to fingolimod, read-out: hS1P1 cAMP SPAN; for hS1P1 cAMP pEC50: inhibition of cAMP production, S1P1 CHO-K1 cells
Method in brief: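 CHO-K1 cells stably co-expressing human S1P1 (C-terminal Prolink tag) and EA-β-arrestin2 were grown in AssayComplete Media 6 at 37° C. and 5% CO2, plated, and incubated overnight. Agonist-driven inhibition of intracellular cAMP was read by TR-FRET with the HTRF cAMP HiRange kit on a PheraStar reader. Potency is pEC50, and efficacy (SPAN) is normalized to fingolimod.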
Target sequence in this assay (P21453 whole entry, looked up): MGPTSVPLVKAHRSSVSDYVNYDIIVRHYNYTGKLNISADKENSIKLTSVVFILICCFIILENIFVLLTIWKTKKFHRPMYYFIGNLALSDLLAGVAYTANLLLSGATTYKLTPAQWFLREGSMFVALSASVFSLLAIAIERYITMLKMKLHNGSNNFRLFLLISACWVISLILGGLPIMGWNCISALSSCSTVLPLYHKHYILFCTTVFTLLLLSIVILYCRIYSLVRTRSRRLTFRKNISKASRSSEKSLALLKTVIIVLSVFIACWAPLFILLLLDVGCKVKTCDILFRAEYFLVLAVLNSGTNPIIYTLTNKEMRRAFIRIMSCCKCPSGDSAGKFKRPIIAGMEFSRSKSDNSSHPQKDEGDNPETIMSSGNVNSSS

[3] = target: T1, human sphingosine-1-phosphate receptor 1 (S1P1); assay: β-Arrestin2 recruitment assay (PathHunter), S1P1 CHO-K1 cells; format: cell-based; settings: for Emax: CHO-K1, efficacy (SPAN) normalized to fingolimod, read-out: hS1P1 B-arrestin2 SPAN; for hS1P1 B-arrestin2 pEC50: β-arrestin2 recruitment, S1P1 CHO-K1 cells
Method in brief: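 Enzyme-fragment complementation read-out: agonist-driven β-arrestin2 binding to ProLink-tagged human S1P1 in stable CHO-K1 cells restores β-galactosidase, measured 1 h at room temperature after a 60 min 37° C. compound incubation. Potency as pEC50, efficacy relative to fingolimod (SPAN).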
Target sequence in this assay (P21453 whole entry, looked up): as above
Target sequence in this assay (P32121 whole entry partner, looked up): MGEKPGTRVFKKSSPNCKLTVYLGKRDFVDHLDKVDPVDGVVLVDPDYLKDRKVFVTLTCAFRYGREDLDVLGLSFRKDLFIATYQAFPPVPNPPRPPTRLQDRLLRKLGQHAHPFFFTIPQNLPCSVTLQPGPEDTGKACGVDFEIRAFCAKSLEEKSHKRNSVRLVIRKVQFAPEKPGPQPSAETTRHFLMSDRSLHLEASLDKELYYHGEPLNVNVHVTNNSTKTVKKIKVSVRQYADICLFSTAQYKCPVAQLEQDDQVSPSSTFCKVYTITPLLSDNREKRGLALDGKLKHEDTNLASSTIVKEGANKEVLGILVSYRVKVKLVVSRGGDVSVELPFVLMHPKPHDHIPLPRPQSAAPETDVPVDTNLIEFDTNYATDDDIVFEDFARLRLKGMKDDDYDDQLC

[4] = system: paclitaxel induced peripheral neuropathy; assay: Reversal of allodynia induced by paclitaxel in mice (s.c. or p.o., von Frey frequency method); format: in vivo, c57bl/6 mice; settings: Mus musculus; for inhibition in vivo at 1 mg/kg: sc, 0.5 h, 1 mg/kg s.c., tested 30 min after dosing, read-out: Screen @ 1 mg/kg sc (% MPE); for inhibition in vivo at 3 mg/kg: po, 1 h, 3 mg/kg p.o., tested 60 min after dosing, read-out: Screen @ 3 mg/kg po (% MPE)
Method in brief: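 Neuropathy was induced in mice by paclitaxel (6 mg/kg i.p., days 1, 3, 5, 7) or oxaliplatin (4 mg/kg i.p., days 1-5), with re-testing about 14 days later. Compounds were given s.c. (tested at 30 min) or p.o. (tested at 60 min; paclitaxel only). A 0.4 g von Frey filament was applied ten times per paw, and % non-response was converted to % MPE.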

[5] = target: sphingosine-1-phosphate receptor 5 (S1P5) (Homo sapiens (Human), UniProt Q9H228); assay: Inhibition of cAMP production (HTRF), S1P5 CHO-K1 cells; format: cell-based; settings: for Emax: CHO-K1, efficacy normalized to fingolimod, read-out: hS1P5 cAMP SPAN; for hS1P5 cAMP pEC50: inhibition of cAMP production
Chain of sphingosine-1-phosphate receptor 5 (S1P5) (Q9H228 whole entry): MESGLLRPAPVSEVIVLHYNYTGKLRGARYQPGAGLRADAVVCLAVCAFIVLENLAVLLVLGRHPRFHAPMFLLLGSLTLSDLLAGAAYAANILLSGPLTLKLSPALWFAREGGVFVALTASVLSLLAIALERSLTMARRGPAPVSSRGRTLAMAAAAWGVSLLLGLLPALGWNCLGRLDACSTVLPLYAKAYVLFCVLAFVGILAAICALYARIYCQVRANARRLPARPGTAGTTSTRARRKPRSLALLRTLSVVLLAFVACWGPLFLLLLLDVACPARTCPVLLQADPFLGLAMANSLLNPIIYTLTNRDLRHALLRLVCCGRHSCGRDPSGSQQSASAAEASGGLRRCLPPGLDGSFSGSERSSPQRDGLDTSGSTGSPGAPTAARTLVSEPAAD
Procedure: Stable clonal Chinese hamster ovary K1 (CHO-K1) cells co-expressing EA-β-arrestin2 and the human sphingosine-1-phosphate receptor 2 (NM_004230.3, S1P2), human sphingosine-1-phosphate receptor 3 (NM_005226, S1P3) and sphingosine-1-phosphate receptor 5 (NM_001166215.1, S1P5) with a C-terminal Prolink™ tag were purchased from DiscoverX corporation (S1P2: Cat #93-0256C2, S1P3: Cat #93-0217C2, S1P5: Cat #93-0583C2).
Cell lines were cultured in AssayComplete™ Media 6 (DiscoverX Corporation, Cat #: 920018GF2) at 37° C. and 5% CO2 in a humidified CO2 and temperature-controlled incubator. To begin assay plating, cells were washed with dulbecco's phosphate buffered saline (CellGro, Cat #: 21-031-CV) and lifted from the culturing flask by incubation (37° C., 5 min) with CellStripper (Cellgro, Cat #: 25-056-CI). […] Plated cells were incubated overnight at 37° C. and 5% CO2 in a humidified CO2 and temperature-controlled incubator.
S1P3 and S1P5 Agonist-promoted G-protein responses were determined by measuring changes in intracellular cAMP using the HTRF® cAMP HiRange kit (CisBio, Cat #: 62AM6PEJ) based on time-resolved fluorescence resonance energy transfer (TR-FRET) technology. […] Following a 30-minute room temperature incubation the components of the cAMP HiRange kit were added as per the manufacturer's instructions. After an hour incubation at room temperature, plates were analyzed by a BMG PheraStar microplate reader.
The tables below include the efficacy of the compound as compared to a positive control, referred to as “SPAN”. These values are normalized to fingolimod, a known agonist of the sphingosine-1-phosphate 3 and 5 receptor or CYM5520, a known agonist of the sphingosine-1-phosphate 2 receptor. The tables also include potency values (pEC50) for modulating discrete receptor-mediated activities (inhibition of cAMP production or inositol monophosphate accumulation).

[6] = target: human sphingosine-1-phosphate receptor 3 (S1P3) (Homo sapiens (Human), UniProt Q99500); assay: Inhibition of cAMP production (HTRF), S1P3 CHO-K1 cells; format: cell-based; settings: for Emax: CHO-K1, efficacy normalized to fingolimod, read-out: hS1P3 cAMP SPAN; for hS1P3 cAMP pEC50: inhibition of cAMP production
Chain of human sphingosine-1-phosphate receptor 3 (S1P3) (Q99500 whole entry): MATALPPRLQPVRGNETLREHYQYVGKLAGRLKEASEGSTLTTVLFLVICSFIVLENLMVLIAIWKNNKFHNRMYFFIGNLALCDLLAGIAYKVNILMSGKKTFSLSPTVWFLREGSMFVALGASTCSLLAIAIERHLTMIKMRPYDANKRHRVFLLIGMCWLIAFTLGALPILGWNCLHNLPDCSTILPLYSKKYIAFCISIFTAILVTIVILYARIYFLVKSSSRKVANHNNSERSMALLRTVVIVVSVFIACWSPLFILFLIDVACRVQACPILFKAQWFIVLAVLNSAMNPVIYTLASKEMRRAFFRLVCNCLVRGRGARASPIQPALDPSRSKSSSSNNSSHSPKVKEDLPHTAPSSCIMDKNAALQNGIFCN

[7] = target: human sphingosine-1-phosphate receptor 2 (S1P2) (Homo sapiens (Human), UniProt O95136); assay: Inositol monophosphate production (IP-one TB kit), S1P2 CHO-K1 cells; format: cell-based; settings: for Emax: CHO-K1, efficacy normalized to CYM5520, read-out: hS1P2 IP-one SPAN; for hS1P2 IP-one pEC50: inositol monophosphate accumulation
Chain of human sphingosine-1-phosphate receptor 2 (S1P2) (O95136 whole entry): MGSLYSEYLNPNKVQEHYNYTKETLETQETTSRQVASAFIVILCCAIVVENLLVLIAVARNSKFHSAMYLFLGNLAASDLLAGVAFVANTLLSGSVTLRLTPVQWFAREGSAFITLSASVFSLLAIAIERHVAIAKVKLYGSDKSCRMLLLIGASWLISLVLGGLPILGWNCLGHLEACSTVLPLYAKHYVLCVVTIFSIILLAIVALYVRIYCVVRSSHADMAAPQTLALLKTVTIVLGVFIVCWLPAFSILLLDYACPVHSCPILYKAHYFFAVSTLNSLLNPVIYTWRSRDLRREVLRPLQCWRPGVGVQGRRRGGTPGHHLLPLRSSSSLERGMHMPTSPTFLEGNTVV
Method in brief: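 Stable CHO-K1 cells expressing EA-β-arrestin2 and Prolink-tagged human S1P2, plated overnight, then exposed to compounds in IP-one stimulation buffer for 60 min at 37 °C. IP1 read by TR-FRET after 1 h at RT. Efficacy (SPAN) normalized to CYM5520; potency as pEC50.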

Row | Compound | Lymphopenia: Effect and Doses, mg/kg, sc ([1]; 6 mg/kg sc, 7 days) | hS1P1 cAMP pEC50 [2] | hS1P1 B-arrestin2 pEC50 [3] | inhibition in vivo at 1 mg/kg [4] | hS1P5 cAMP pEC50 [5] | hS1P3 cAMP pEC50 [6] | hS1P2 IP-one pEC50 [7] | further results
1 | Cc1cnccc1-c1nc(-c2ccc3c(c2)nnn3C(C)C)no1 [Compound 8, 3-(1-isopropyl-1H-benzo[d][1,2,3]triazol-5-yl)-5-(3-methylpyridin-4-yl)-1,2,4-oxadiazole] | no change: 6 mg/kg, 7 days | <6.5 | <5 | < 50% | – | – | – | Emax [2]: < 75%; Emax [3]: < 75%
2 | COc1cccc(-c2noc(-c3ccc4c(c3)nnn4C(C)C)n2)n1 [Compound 19, 5-[3-(6-methoxypyridin-2-yl)-1,2,4-oxadiazol-5-yl]-1-(propan-2-yl)-1H-1,2,3-benzotriazole] | no change: 6 mg/kg, 7 days | <6.5 | >5 | – | – | – | – | –
3 | CC(C)Oc1ccc(-c2nc(-c3ccc4c(c3)nnn4C(C)C)no2)cc1C#N [Compound 22, 2-isopropoxy-5-(3-(1-isopropyl-1H-benzo[d][1,2,3]triazol-5-yl)-1,2,4-oxadiazol-5-yl)benzonitrile] | – | – | – | – | – | – | – | Lymphopenia: Effect and Doses, mg/kg, sc ([1]; 3 mg/kg sc, 7 days): no change: 3 mg/kg, 7 days
4 | Cc1ccccc1-c1noc(-c2ccc3c(c2)nnn3C(C)(C)C)n1 [Compound 59, 1-tert-butyl-5-[3-(2-methylphenyl)-1,2,4-oxadiazol-5-yl]-1H-1,2,3-benzotriazole] | no change: 6 mg/kg, 7 days | >6.5 | >5 | – | – | – | – | –
5 | Cc1cnc(-c2nc(-c3ccc4c(c3)nnn4C(C)C)no2)cn1 [Compound 234, 3-(1-isopropyl-1H-benzo[d][1,2,3]triazol-5-yl)-5-(5-methylpyrazin-2-yl)-1,2,4-oxadiazole] | no change: 6 mg/kg, 7 days | <6.5 | <5 | – | – | – | – | –
6 | CCC1(CC)CC(=O)c2cc(-c3nc(-c4ccc(NS(C)(=O)=O)cc4)no3)ccc2O1 [Compound 262, N-(4-(5-(2,2-diethyl-4-oxochroman-6-yl)-1,2,4-oxadiazol-3-yl)phenyl)methanesulfonamide] | – | >6.5 | >5 | > 50% | <5.0 | <5.0 | <5.0 | Emax [5]: < 50%; Emax [6]: < 50%; Emax [2]: > 75%; Emax [3]: > 75%; Emax [7]: > 50%; inhibition in vivo at 3 mg/kg [4]: > 50%
7 | CCC1(CC)CC(=O)c2cc(-c3nc(-c4ccnc(O)c4)no3)ccc2O1 [Compound 263, 2,2-diethyl-6-[3-(2-hydroxy-4-pyridyl)-1,2,4-oxadiazol-5-yl]chroman-4-one] | – | >6.5 | >5 | > 50% | <5.0 | <5.0 | <5.0 | inhibition in vivo at 3 mg/kg [4]: > 50%
8 | C=CCNc1ccc(-c2nc(-c3ccc4sc(N)nc4c3)no2)cc1C#N [Compound 267, 2-(allylamino)-5-(3-(2-aminobenzo[d]thiazol-5-yl)-1,2,4-oxadiazol-5-yl)benzonitrile] | – | >6.5 | >5 | > 50% | <5.0 | <5.0 | <5.0 | –
9 | COc1ccccc1-c1coc(-c2ccc3c(c2)nnn3C(C)C)n1 [Compound 277, 5-[4-(2-methoxyphenyl)-1,3-oxazol-2-yl]-1-(propan-2-yl)-1H-1,2,3-benzotriazole] | – | >6.5 | >5 | > 50% | <5.0 | <5.0 | <5.0 | Emax [5]: < 50%; Emax [6]: < 50%; Emax [2]: > 75%; Emax [3]: > 75%; Emax [7]: > 50%
10 | CN1C(=O)CCc2cc(-c3nc(-c4cccnc4)no3)ccc21 [Compound 384, 1-methyl-6-[3-(pyridin-3-yl)-1,2,4-oxadiazol-5-yl]-1,2,3,4-tetrahydroquinolin-2-one] | – | <6.5 | <5 | – | – | – | – | Lymphopenia: Effect and Doses, mg/kg, sc ([1]; acute, 3 mg/kg sc, 45 min and 2 hr): no change: 3 mg/kg; 45 min and 2 hr
11 | COc1cc(NC(C)=O)ccc1-c1noc(-c2ccc(NC(C)C)c(C#N)c2)n1 [Compound 731, N-[4-(5-{3-cyano-4-[(propan-2-yl)amino]phenyl}-1,2,4-oxadiazol-3-yl)-3-methoxyphenyl]acetamide] | – | – | – | – | – | – | – | Lymphopenia: Effect and Doses, mg/kg, sc (change in peripheral blood lymphocytes) ([1]; 6 mg/kg sc, 7 days): −78% stat sig: 6 mg/kg, 7 days; inhibition in vivo at 3 mg/kg [4]: > 50%
12 | CC(C)Nc1ccc(-c2ncc(-c3cccnc3)cn2)cc1C#N [Compound 737, 2-(isopropylamino)-5-(5-(pyridin-3-yl)pyrimidin-2-yl)benzonitrile] | – | – | – | – | – | – | – | Lymphopenia: Effect and Doses, mg/kg, sc (change in peripheral blood lymphocytes) ([1]; 6 mg/kg sc, 7 days): −40% not stat sig: 6 mg/kg, 7 days
